The values that follow come from paper PMC12616683, “In Vivo Atlas of Neuroprotective Cyclic Dipeptides Derived from Food Gelatin Using Peptidomics and Feature-Based Molecular Networking” (Journal of Agricultural and Food Chemistry, 2025).

Square brackets hold non-standard residues; d marks the D form. Peptide text beside a SMILES is read from it. pGlu = O=C1CC[CH](C(=O)O)N1

This data set is described as follows: FBMN analysis of short peptides in small intestine contents and serum after oral DHG. Conditions: for Peptide signal (feature intensity) in the small intestine, 30 min / Peptide signal (feature intensity) in the small intestine, 60 min / Peptide signal (feature intensity) in the small intestine, 120 min / Peptide signal (feature intensity) in the small intestine, 240 min: small intestine contents, C57 mice, FBMN feature intensity, peptides smaller than 690 Da; for Peptide signal (feature intensity) in the small intestine, 30 min: 30 min after oral DHG; for Peptide signal (feature intensity) in the small intestine, 60 min: 60 min after oral DHG; for Peptide signal (feature intensity) in the small intestine, 120 min: 120 min after oral DHG; for Peptide signal (feature intensity) in the small intestine, 240 min: 240 min after oral DHG.

In the case of `O=C1CCC(C(=O)NC(Cc2ccc(O)cc2)C(=O)O)N1` (centres unmarked) [PyroGlu-Tyr] ([pGlu]-Tyr-OH; configuration not given here), the “Peptide signal (feature intensity) in the small intestine, 30 min” value (“Peptide signal (feature intensity) … 30 min” for short) worked out at 0.00E+00; the “Peptide signal (feature intensity) in the small intestine, 60 min” value (“Peptide signal (feature intensity) … 60 min” for short) was 2.55E+07; the “Peptide signal (feature intensity) in the small intestine, 120 min” value (“Peptide signal (feature intensity) … 120 min” for short) is 0.00E+00; the “Peptide signal (feature intensity) in the small intestine, 240 min” value (from here on “Peptide signal (feature intensity) … 240 min”) was 1.33E+07.
In the case of `CC(C)[C@H](NC(=O)[C@@H]1CCC(=O)N1)C(=O)O` [PyroGlu-Val] (HELM PEPTIDE1{[Glp].V}$$$$V2.0), the “Peptide signal (feature intensity) … 30 min” value is given as 0.00E+00; the “Peptide signal (feature intensity) … 60 min” value is reported as 7.64E+06; the “Peptide signal (feature intensity) … 120 min” value is reported as 0.00E+00; the “Peptide signal (feature intensity) … 240 min” value is on record as 1.03E+07.
As to `CC(C)C[C@H](NC(=O)[C@@H](N)CO)C(=O)N[C@@H](CCCCN)C(=O)O` [Ser-Leu-Lys] (H-Ser-Leu-Lys-OH), the “Peptide signal (feature intensity) … 30 min” value worked out at 8.94E+05; the “Peptide signal (feature intensity) … 60 min” value stood at 6.69E+05; the “Peptide signal (feature intensity) … 120 min” value came to 1.60E+06; the “Peptide signal (feature intensity) … 240 min” value worked out at 4.59E+06.
For the compound `CC(C)CC(NC(=O)C(N)CO)C(=O)O` (stereo not drawn) [Ser-Leu] (H-Ser-Leu-OH; configuration not given here), the “Peptide signal (feature intensity) … 30 min” value is recorded as 0.00E+00; the “Peptide signal (feature intensity) … 60 min” value was determined as 1.15E+07; the “Peptide signal (feature intensity) … 120 min” value stood at 0.00E+00; the “Peptide signal (feature intensity) … 240 min” value was determined as 1.59E+07.
In the case of `N[C@@H](CO)C(=O)N[C@@H](Cc1ccccc1)C(=O)O` [Ser-Phe], the “Peptide signal (feature intensity) … 30 min” value came out at 0.00E+00; the “Peptide signal (feature intensity) … 60 min” value was determined as 1.38E+06; the “Peptide signal (feature intensity) … 120 min” value worked out at 0.00E+00; the “Peptide signal (feature intensity) … 240 min” value is recorded as 4.01E+05.
Turning to `CC(C)[C@H](NC(=O)[C@@H](N)CO)C(=O)O` [Ser-Val] (H-Ser-Val-OH), the “Peptide signal (feature intensity) … 30 min” value is 0.00E+00; the “Peptide signal (feature intensity) … 60 min” value was 5.23E+06; the “Peptide signal (feature intensity) … 120 min” value worked out at 0.00E+00; the “Peptide signal (feature intensity) … 240 min” value turned out to be 2.48E+07.
Regarding `CC(C)C[C@H](NC(=O)[C@@H](N)[C@@H](C)O)C(=O)O` [Thr-Leu] (H-Thr-Leu-OH), the “Peptide signal (feature intensity) … 30 min” value is 0.00E+00; the “Peptide signal (feature intensity) … 60 min” value is 4.45E+06; the “Peptide signal (feature intensity) … 120 min” value was 0.00E+00; the “Peptide signal (feature intensity) … 240 min” value is on record as 8.43E+06.
Regarding `CC(C)CC(NC(=O)C(NC(=O)C(N)C(C)O)C(C)C)C(=O)O` (stereo not drawn) [Thr-Val-Leu] (H-Thr-Val-Leu-OH; configuration not given here), the “Peptide signal (feature intensity) … 30 min” value is given as 5.29E+05; the “Peptide signal (feature intensity) … 60 min” value turned out to be 1.54E+05; the “Peptide signal (feature intensity) … 120 min” value amounted to 0.00E+00; the “Peptide signal (feature intensity) … 240 min” value stood at 1.07E+06.
For `Cc1cn([C@H]2C[C@H](O)[C@@H](CO)O2)c(=O)[nH]c1=O` [Thymidine] the same measures were 6.40E+05, 1.66E+05, 0.00E+00 and 0.00E+00.
With `N[C@@H](Cc1c[nH]c2ccccc12)C(=O)N[C@@H](CCC(=O)O)C(=O)O` [Trp-Glu] (H-Trp-Glu-OH), the “Peptide signal (feature intensity) … 30 min” value is reported as 0.00E+00; the “Peptide signal (feature intensity) … 60 min” value is reported as 0.00E+00; the “Peptide signal (feature intensity) … 120 min” value was found to be 0.00E+00; the “Peptide signal (feature intensity) … 240 min” value amounted to 1.26E+07.
For the compound `CSCC[C@H](NC(=O)[C@@H](N)Cc1c[nH]c2ccccc12)C(=O)O` [Trp-Met] (H-Trp-Met-OH), the “Peptide signal (feature intensity) … 30 min” value came out at 0.00E+00; the “Peptide signal (feature intensity) … 60 min” value is reported as 0.00E+00; the “Peptide signal (feature intensity) … 120 min” value turned out to be 0.00E+00; the “Peptide signal (feature intensity) … 240 min” value is 1.16E+06.
On to `N[C@@H](Cc1c[nH]c2ccccc12)C(=O)NCC(=O)O` [Trp-gly] (H-Trp-Gly-OH), for which the “Peptide signal (feature intensity) … 30 min” value stood at 0.00E+00; the “Peptide signal (feature intensity) … 60 min” value stood at 0.00E+00; the “Peptide signal (feature intensity) … 120 min” value came to 0.00E+00; the “Peptide signal (feature intensity) … 240 min” value worked out at 6.50E+05.
As to `CC(C)CC(NC(=O)C(N)Cc1ccc(O)cc1)C(=O)O` (stereo not drawn) [Tyr-Leu] (H-Tyr-Leu-OH; configuration not given here), the “Peptide signal (feature intensity) … 30 min” value was 2.28E+06; the “Peptide signal (feature intensity) … 60 min” value was 2.16E+06; the “Peptide signal (feature intensity) … 120 min” value was determined as 0.00E+00; the “Peptide signal (feature intensity) … 240 min” value amounted to 0.00E+00.
For `NC(Cc1ccc(O)cc1)C(=O)NC(Cc1ccc(O)cc1)C(=O)O` (stereo not drawn) [Tyr-Tyr] (H-Tyr-Tyr-OH; configuration not given here), the “Peptide signal (feature intensity) … 30 min” value is on record as 2.40E+05; the “Peptide signal (feature intensity) … 60 min” value amounted to 1.86E+06; the “Peptide signal (feature intensity) … 120 min” value was 0.00E+00; the “Peptide signal (feature intensity) … 240 min” value came out at 0.00E+00.
Consider `CC(C)[C@H](NC(=O)[C@@H](N)Cc1ccc(O)cc1)C(=O)O` [Tyr-Val] (H-Tyr-Val-OH), for which the “Peptide signal (feature intensity) … 30 min” value was determined as 2.96E+06; the “Peptide signal (feature intensity) … 60 min” value amounted to 1.48E+06; the “Peptide signal (feature intensity) … 120 min” value is given as 0.00E+00; the “Peptide signal (feature intensity) … 240 min” value worked out at 0.00E+00.
For `CC(C)[C@H](N)C(=O)NCC(=O)N[C@H](C(=O)O)C(C)C` [Val-Gly-Val] (H-Val-Gly-Val-OH), the “Peptide signal (feature intensity) … 30 min” value worked out at 4.35E+07; the “Peptide signal (feature intensity) … 60 min” value was 3.24E+07; the “Peptide signal (feature intensity) … 120 min” value is 0.00E+00; the “Peptide signal (feature intensity) … 240 min” value was 4.99E+06.
The matching figures for `CC[C@H](C)[C@H](NC(=O)[C@@H](N)C(C)C)C(=O)N[C@@H](CCCCN)C(=O)O` [Val-Ile-Lys] (H-Val-Ile-Lys-OH): 0.00E+00, 2.02E+05, 0.00E+00 and 4.35E+06.
For `CC(C)CC(NC(=O)C(N)C(C)C)C(=O)O` (stereo not drawn) [Val-Leu] (H-Val-Leu-OH; configuration not given here) the same measures were 2.94E+06, 3.78E+06, 0.00E+00 and 0.00E+00.
Take `CSCC[C@H](NC(=O)[C@@H](N)C(C)C)C(=O)O` [Val-Met] (H-Val-Met-OH): the “Peptide signal (feature intensity) … 30 min” value was determined as 3.30E+06; the “Peptide signal (feature intensity) … 60 min” value is 7.38E+06; the “Peptide signal (feature intensity) … 120 min” value came to 0.00E+00; the “Peptide signal (feature intensity) … 240 min” value is on record as 0.00E+00.
In the case of `CC(C)[C@H](N)C(=O)N[C@@H](Cc1ccccc1)C(=O)O` [Val-Phe] (H-Val-Phe-OH), the “Peptide signal (feature intensity) … 30 min” value turned out to be 1.38E+06; the “Peptide signal (feature intensity) … 60 min” value was 1.78E+06; the “Peptide signal (feature intensity) … 120 min” value was 0.00E+00; the “Peptide signal (feature intensity) … 240 min” value is 0.00E+00.
`CC(C)[C@H](N)C(=O)N[C@@H](Cc1c[nH]c2ccccc12)C(=O)O` [Val-Trp] (H-Val-Trp-OH): the “Peptide signal (feature intensity) … 30 min” value amounted to 4.66E+05; the “Peptide signal (feature intensity) … 60 min” value was 4.22E+05; the “Peptide signal (feature intensity) … 120 min” value turned out to be 6.61E+05; the “Peptide signal (feature intensity) … 240 min” value was determined as 1.64E+06.
On to `CC(C)[C@H](N)C(=O)N[C@H](C(=O)O)C(C)C` [Val-Val] (H-Val-Val-OH), for which the “Peptide signal (feature intensity) … 30 min” value was found to be 5.52E+06; the “Peptide signal (feature intensity) … 60 min” value came to 1.24E+07; the “Peptide signal (feature intensity) … 120 min” value is given as 0.00E+00; the “Peptide signal (feature intensity) … 240 min” value was determined as 0.00E+00.
In the case of `CC(C)CC1NC(=O)C2CC(O)CN2C1=O` [cyclo(L-Leu-L-Hyp)], the “Peptide signal (feature intensity) … 30 min” value is recorded as 9.23E+06; the “Peptide signal (feature intensity) … 60 min” value amounted to 0.00E+00; the “Peptide signal (feature intensity) … 120 min” value is 5.32E+06; the “Peptide signal (feature intensity) … 240 min” value came to 2.54E+06.
For `O=C1N[C@@H](Cc2ccccc2)C(=O)N2C[C@@H](O)C[C@@H]12` [cyclo(L-Phe-L-4-Hyp)] the same measures were 1.19E+07, 0.00E+00, 1.15E+07 and 6.80E+06.
The matching figures for `CC(C)[C@@H]1NC(=O)[C@@H]2CCCN2C1=O` [cyclo(L-Val-L-Pro)]: 3.95E+05, 0.00E+00, 6.03E+05 and 4.57E+05.
As to `CC(C)C[C@@H]1NC(=O)[C@H](Cc2ccccc2)NC1=O` [cyclo(Leu-Phe)], where the note is “serum, time points 0.5-4 h after oral DHG”, the “time detected in serum (FBMN)” value was 0.5 to 4 h.
